Reference: PMC9867332 (Pharmaceutics, 2022)
Read-outs that look alike come from different tables or passages of the source.

Legend:
[1] = MTT cytotoxicity assay on uninfected Vero cells; assay type: cell-based; conditions: African green monkey, uninfected Vero cells (CCL-81), 3 days at 37 °C, read-out: CC50 (half-maximum cytotoxic concentration)
Procedure: Vero cells (CCL-81, American Type Culture Collection, Boston, MA, USA), used as a cellular model for antiviral bioassay, were cultured in Dulbecco’s modified Eagle’s medium (DMEM), supplemented with 10% fetal bovine serum (FBS) and gentamycin, and incubated at 37 °C with 5% CO2. They were used to adapt the avian Massachusetts serotype CoV-IBV strain.
Cell viability was evaluated using the MTT (3-(4,5-dimethylthiazol-2-yl)-2,5-diphe- nyltetrazolium bromide) method. The MTT assay is sensitive and reliable for cellular metabolic activity. It is based on the ability of nicotinamide adenine dinucleotide phosphate (NADPH)-dependent cellular oxidoreductase enzyme to reduce the tetrazolium dye to the purple formazan crystals. Sub-confluent Vero cells, seeded in 96-well microplates (2 × 10^6 cells/microplate; Thermo Fisher Scientific), were incubated with serial dilutions of synthesized molecules, in duplicates for 3 days at 37 °C. MTT solution (500 μg/mL) was then added, and the cells were incubated for further 4 h. The formed formazan crystals within metabolically viable cells were then dissolved in 100 µL of DMSO, and the absorption, proportional to viable cell number, was measured at 490 nm with a Thermo Scientific Multiskan FC. The results were expressed as a percentage of viable cells relative to the negative control (untreated cells cultured in standard medium and considered 100% viable). The half-maximum cytotoxic concentration (CC50), which was defined as the concentration which reduced the OD490 of the 1,3,4-oxadiazole-derived α-aminophosphonates/α-aminophosphonic acids-treated cells to 50% of that of untreated cells, were determined from the plotted curve of percentages of viable cells against compound concentrations.

avian CoV-IBV [2] = assay type: cell-based; conditions: IBV titration in infected Vero cells, qRT-PCR, 3 days post-infection
avian CoV-IBV [3] = test: microbe, parasite or virus in culture; assay type: cell-based; conditions: for Virucidal Activity Inhibition (%): 2 h incubation with virus at 37 °C, qRT-PCR
IBV = tested on: IBV; set-up: method as in PMID 17479370; conditions: dose-dependent, without virucidal effect; cited from earlier work
IBV Beaudette strain = tested on: IBV Beaudette strain; set-up: method as in PMID 17479370; conditions: 5 to 50 mM; cited from earlier work
[4] = Avian coronavirus, 2 h, read-out: Virucidal Activity Inhibition (%)

Row | SMILES | CC50 at 3 days [1] [µM] | Antiviral Activity (avian CoV-IBV [2]; 33 µM) | inhibition at 33 µM (avian CoV-IBV [3]; [4]) [%] | Antiviral Activity (avian CoV-IBV [2]; 3.66 µM) | inhibition at 3.66 µM (avian CoV-IBV [3]; [4]) [%] | other results
1 | CCOP(=O)(OCC)C(Nc1nnc(-c2ccccc2)o1)c1ccc([N+](=O)[O-])cc1 (stereo not shown) [5b, diethyl[(5-phenyl-1,3,4-oxadiazol-2-ylamino) (4-nitrophenyl)methyl]phosphonate] | 1599 ± 4.73 | Not active | 35 ± 0.53 |  |  | 
2 | CCOP(=O)(OCC)C(Nc1nnc(-c2ccccc2)o1)c1ccc(F)cc1 (stereo not shown) [5c, diethyl[(5-phenyl-1,3,4-oxadiazol-2-ylamino)(4-fluorophenyl)methyl]phosphonate] | ~550 |  |  | Not active | 46 ± 1.49 | 
3 | CCOP(=O)(OCC)C(Nc1nnc(-c2ccccc2)o1)c1ccc(OC(F)(F)F)cc1 (stereo not shown) [5f, diethyl[(5-phenyl-1,3,4-oxadiazol-2-ylamino)(4-trifluoromethoxyphenyl)methyl]phosphonate] |  | Not active | 86.1 ± 1.58 |  |  | melting point: 106.6 to 107.5 °C; Virucidal Activity Inhibition (%) (avian CoV-IBV [3]; 33 µM): strongly inhibited the IBV infectivity
4 | O=P(O)(O)C(Nc1nnc(-c2ccccc2)o1)c1ccc(C(F)(F)F)cc1 (stereo not shown) [6a, [(5-phenyl-1,3,4-oxadiazol-2-ylamino)(4-trifluoromethylphenyl)methyl] phosphonic acid] | ~550 |  |  |  |  | melting point: > 260 °C; Antiviral Activity (avian CoV-IBV [2]; 1.23 µM): Not active; Virucidal Activity Inhibition (%) (avian CoV-IBV [3]; 1.23 µM): strongly inhibited the IBV infectivity; inhibition at 1.23 µM (avian CoV-IBV [3]; [4]): 75 ± 0.75%
5 | O=[N+]([O-])c1ccc(C(Nc2nnc(-c3ccccc3)o2)P(=O)(O)O)cc1 (stereo not shown) [6b, [(5-Phenyl-1,3,4-oxadiazol-2-ylamino)(4-nitrophenyl)methyl]phosphonic acid] | ~550 |  |  | Not active | 31.4 ± 2.4 | 
6 | O=P(O)(O)C(Nc1nnc(-c2ccccc2)o1)c1ccc(F)cc1 (stereo not shown) [6c, [(5-Phenyl-1,3,4-oxadiazol-2-ylamino)(4-fluorophenyl)methyl]phosphonic acid] |  | Not active | 59.6 ± 1.34 |  |  | 
7 | O=P(O)(O)C(Nc1nnc(-c2ccccc2)o1)c1cc(F)c(F)c(F)c1 (stereo not shown) [6d, [(5-Phenyl-1,3,4-oxadiazol-2-ylamino)(3,4,5-trifluophenyl)methyl]phosphonic acid] | ~550 |  |  | Not active | 25 ± 1.15 | 
8 | O=P(O)(O)C(Nc1nnc(-c2ccccc2)o1)c1cc(C(F)(F)F)cc(C(F)(F)F)c1 (stereo not shown) [6e, [(5-Phenyl-1,3,4-oxadiazol-2-ylamino)(3,5-bis-trifuoromethyl-phenyl)methyl] phosphonic acid] | ~550 | Not active | 22.7 ± 3.25 |  |  | 
9 | [Cl-].[Li+] [LiCl, lithium chloride] |  |  |  |  |  | replication of IBV in Vero cells (IBV): suppress the replication of IBV in Vero cells in a dose-dependent manner; virucidal activity (virus titre after incubation) (IBV Beaudette strain): did not modify the title of the virus
